Laboratory results as given in PubChem BioAssay AID1508612.

Experiment: passive permeability, PAMPA, ADME assay (AID 1508612)
Settings: pH 7.4, 30.0 min, 50.0 µM

Papp [×10⁻⁶ cm/s] | Compound
2.7 | CC1CCC(NC(=O)c2ccc3c(c2)N(Cc2ccccc2F)C(=O)c2ccccc2S3)CC1 (stereo not drawn)
189 | N#Cc1cccc(S(=O)(=O)Nc2cnccc2C(=O)Nc2nc(-c3ccccc3)cs2)c1
> 1000 | COc1ccc(C)cc1Nc1c2c(nc3ccccc13)CCC2
46.2 | Cc1cc(NS(=O)(=O)c2ccc(C(=O)NCc3ccc(Cl)c(Cl)c3)cc2)no1
58.5 | CCOC(=O)N1CCc2c(sc(NCc3ccc(N(C)C)cc3)c2C(=O)Nc2ccc(OC)cc2)C1
434 | CCOC(=O)c1c[nH]c2c3c(ccc2c1=O)CCCC3
516 | CCOc1ccc(C2c3c(oc4ccc(C)cc4c3=O)C(=O)N2CCCN(C)C)cc1 (stereo not drawn)
948 | Cc1cc(C)c(C(=O)Nc2cccc([S+](=O)([O-])N3CCCC3)c2)[nH]1
445 | COc1ccc(CN2CCc3c(c(=O)n4ncc(C(=O)N5CCN(c6ccccc6OC)CC5)c4n3C)C2)cc1
< 1 | Cc1ccc(S(=O)(=O)Nc2cnccc2C(=O)Nc2ccc(S(=O)(=O)Nc3nccs3)cc2)cc1
> 1000 | CCOc1ccc(CCNC(=O)c2cc3sccc3n2C)cc1OCC
895 | O=C(c1ccc2c(c1)ncn2-c1cccc(Cl)c1)N1CCCCC1
314 | O=C(Nc1nc(-c2ccccc2)cs1)c1ccncc1NS(=O)(=O)c1ccc(N2CCCC2=O)cc1
< 1 | O=C(Nc1nc(-c2ccccc2)cs1)c1ccncc1NS(=O)(=O)c1ccc(-c2ccccc2)cc1
797 | O=C(NCc1ccc(S(=O)(=O)c2cccc(C(F)(F)F)c2)cc1)c1cnc2[nH]ncc2c1
517 | NC(=O)C1CCN(c2nc(-c3ccccc3Cl)cs2)CC1
> 1000 | CCOC(=O)C1=C(CN(CC)Cc2ccccc2)NC(=O)NC1c1ccc(OC(C)C)cc1 (stereo not drawn)
25.8 | COc1cccc(CNc2ccc(S(=O)(=O)Nc3nc(C)c(C)s3)cc2)c1O
< 1 | O=C(Cc1nc2ccc(Cl)cc2[nH]1)Nc1ccc(S(=O)(=O)Nc2nccs2)cc1
> 1000 | Cc1ccc(-n2ncc3c(NCCCn4ccnc4)ncnc32)cc1Cl
178 | CCC(=O)N1CCN(c2ccc(-n3c(=O)ccc4cnc5ccc(-c6cnc7ccccc7c6)cc5c43)cc2C(F)(F)F)CC1

Papp [×10⁻⁶ cm/s] | Compound
540 | Cc1c(O)ccc2c1OC(C)(C)CC2
> 1000 | CC(C)CNc1ncnc2onc(-c3ccc(Cl)cc3)c12
795 | CC1CCc2ccc(F)cc2N1S(=O)(=O)c1cccs1 (stereo not drawn)
> 1000 | O=C(Nc1nc(-c2ccccc2)cs1)c1ccncc1NS(=O)(=O)c1ccc(F)c(F)c1
< 1 | Cc1cnc(-c2ccccc2C2COC2)nc1NCc1ccc(-n2ccnn2)cc1
121 | O=C(COC(=O)CCC(=O)c1cccs1)NCc1ccco1
362 | CCCNC(=O)Nc1ccc(Oc2ncnc3cc(OC)c(OC)cc23)cc1Cl
314 | Cc1nnc(N2C(=O)c3oc4ccccc4c(=O)c3C2c2ccc(F)cc2)s1 (stereo not drawn)
33.5 | COc1ncc(-c2n[nH]c3c2CC(=O)N(c2ccccc2)C3)cn1
> 1000 | CCOc1ccc(CCN(C)C(=O)c2cc3sccc3n2Cc2ccccc2)cc1OCC
379 | N#Cc1ccccc1Nc1ncc(-c2cccc3ccccc23)o1
7.06 | C[C@@]12O[C@@H](C[C@]1(O)CO)n1c3ccccc3c3c4c(c5c6ccccc6n2c5c31)CNC4=O
224 | CC(=O)Nc1ccc(NC(=O)C(NS(=O)(=O)c2ccc(Br)s2)c2ccccc2)cc1 (stereo not drawn)
472 | O=C(NCCO)c1cccc(-c2cc(Nc3ccc(OC(F)(F)F)cc3)ncn2)c1
> 1000 | CCOc1ccc(CCNC(=O)c2cc3sccc3n2CCN(C)C)cc1OCC
> 1000 | COc1cc(O)c([C@H](CC(=O)N2CC(C)CC(C)C2)c2ccc3c(c2)OCO3)c(OC)c1 (stereo partly drawn)
676 | COC(=O)c1ccc(Nc2nc(-c3ccncc3)nc3ccccc23)cc1OC
> 1000 | CCOC(=O)N1CCN(Cc2nc3cc(NC(=O)c4ccc(OC)cc4)ccc3n2C(C)C)CC1
442 | COc1ccc(CCNC(=O)Cn2c(=O)c3cccn3c3ccc(F)cc32)cc1OC
734 | CC1=C(C(=O)NC2CCCCC2)C(c2ccccc2Br)N=C(Nc2nc3ccccc3o2)N1 (stereo not drawn)
371 | Fc1ccc(Nc2ccnc(-c3ccncc3)n2)cc1F

Papp [×10⁻⁶ cm/s] | Compound
736 | CNC(=O)C1CCN(c2nc(-c3ccc(Br)cc3)cs2)CC1
502 | C#CCOc1ccc(-c2nnc(Nc3ccc(NC(C)=O)cc3)c3ccccc23)cc1
10.7 | CC(C)N(CCCNC(=O)Nc1ccc(C(C)(C)C)cc1)C[C@H]1O[C@@H](n2ccc3c(N)ncnc32)[C@H](O)[C@@H]1O
39 | COc1cccc(C(=O)Nc2ccc3c(N4CCOCC4)ncnc3c2)c1
99.5 | CCOc1ccccc1C(=O)Nc1ccncc1C(=O)Nc1cccc(S(=O)(=O)C(F)(F)F)c1
985 | CNc1nc(-c2cccc3ccccc23)ccc1C#N
882 | CCOc1ccc(NC(=O)c2nc(S(=O)(=O)Cc3ccccc3F)ncc2Cl)cc1
44.4 | Cc1ccccc1OCC(O)CO (stereo not drawn)
476 | COc1ccc(-n2nc(C3CCCN(C(=O)c4ccccc4F)C3)[nH]c2=O)cc1 (stereo not drawn)
2.31 | Cc1nc(Nc2n[nH]c3c2CN(C(=O)N[C@H](CN(C)C)c2ccccc2)C3(C)C)c2sccc2n1
522 | COc1ccc(NC(=O)c2cccnc2C)cc1S(=O)(=O)Nc1ccc(Br)cc1
> 1000 | CC1Cc2cc(S(=O)(=O)NCc3ccc(N(C)C)cc3)ccc2N1C(=O)C1CCC1 (stereo not drawn)
5.4 | Fc1cc(Nc2nc(-c3ccncc3)nc3ccccc23)ccc1-c1cccnc1
824 | Cc1ccc(-c2ccc(CNc3nc(-c4ccccc4C(C)C)ncc3C)cc2)cn1
289 | Cc1nc2sccn2c(=O)c1S(=O)(=O)Nc1ccc(N2CCN(C)CC2)cc1
920 | Cc1ccc(-n2nc3c(=O)n(CCCC(=O)NCc4ccccc4F)nc(C)c3c2C)cc1
< 1 | Cc1ccc(C(=O)Nc2nc3nc(C)cc(=O)n3[nH]2)cc1
1.4 | Cc1ccc(S(=O)(=O)Nc2cnccc2C(=O)Nc2ccc(-c3nn[nH]n3)cc2)cc1
> 1000 | NCC(=O)Nc1ccc(Cl)cc1C(=O)c1ccc[nH]1

Continued, compound first:

Compound | Papp [×10⁻⁶ cm/s]
CCn1c(-c2nonc2N)nc2cnc(Oc3cccc(NC(=O)c4ccc(OCCN5CCOCC5)cc4)c3)cc21 | < 1
CC(=O)Nc1ccc(C(=O)Nc2ccc3c(c2)N(C2CCCC2)C(=O)c2ccccc2S3)cc1 | 138
Cc1ccc(S(=O)(=O)Nc2cnccc2C(=O)Nc2nc(-c3ccc(Oc4ccccc4)cc3)cs2)cc1 | 44.4
Oc1ccc(C(=S)N2CCN(c3cccc(Cl)c3)CC2)cc1 | 677
Cc1ccc(S(=O)(=O)Nc2ccncc2C(=O)Nc2nc(-c3ccccc3)cs2)cc1 | < 1
COc1ccc(OC)c(-c2nnc3n2N=C(c2c(OC)cccc2OC)CS3)c1 | 617
CCOC(=O)C1CCN(c2nc(-c3ccc(Br)cc3)cs2)CC1 | 120
CC(C)c1ccc2oc3nc(N)c(C(=O)O)cc3c(=O)c2c1 | 9.71
Cc1ccccc1N(C)C1CN([S+](=O)([O-])c2cccc(C(F)(F)F)c2)C1 | 991
C[C@@]1(c2ncncc2F)NC(=O)c2cc(-c3cn[nH]c3)ccc21 | 52.1
NC(=O)C1CCN(c2nc(-c3cccc(Cl)c3)cs2)CC1 | > 1000
COc1ccnc(NC(=S)N2CCN(c3cccc(C(F)(F)F)c3)CC2)c1 | 417
C[C@@]1(C(=O)Nc2ccc(F)nc2)CCCN1c1nc(Nc2cc(C3CC3)[nH]n2)c2cccn2n1 | 780
CN(C)C(=O)c1nc(-c2ccc(Cl)nc2)c2ccccn12 | > 1000
COc1ccc(-c2nc3ccc(C4=NNC(=O)CC4C)cc3[nH]2)cc1 (stereo not drawn) | 228
COc1ccc(-c2cc(-c3cccc(NC(C)=O)c3)cn3cncc23)cn1 | 39
COC(=O)[C@H](Cc1ccc(O[S+](=O)([O-])c2cccc3cnccc23)cc1)N[S+](=O)([O-])c1ccc2cnccc2c1 | > 1000
O=C(NCCCc1ccccc1)c1cccc(-c2cc(O)c3ncccc3c2)c1 | < 1
Fc1ccc(Nc2nc(Nc3ccncc3)nc3ccccc23)cc1F | 40.4
Cc1ccc(S(=O)(=O)Nc2cnccc2C(=O)Nc2nc(-c3ccccc3)cs2)cc1 | 724
COCCNCc1ccc(-c2cc3nccc(Oc4ccc(NC(=S)NC(=O)Cc5ccc(F)cc5)cc4F)c3s2)nc1 | 361

Compound | Papp [×10⁻⁶ cm/s]
COc1ccc(C(=O)NC2CCCc3c2[nH]c2c(Cl)cccc32)cc1OC (stereo not drawn) | 139
NC(=O)N1CCCC(C(=O)N2CCCN(c3ccc(F)cc3)CC2)C1 (stereo not drawn) | 111
Nc1ccccc1CNc1ccc(S(=O)(=O)Nc2nccs2)cc1 | 1.09
Cc1ccnc(NC(=S)N2CCN(c3ncc(C(F)(F)F)cc3Cl)CC2)c1 | 930
CC(O)(C#Cc1ccc2c(c1)N(c1nc(N)ncc1Cl)CC2)c1nccs1 (stereo not drawn) | 516
COc1ccc(Nc2nc(-c3cccc(OC)c3)no2)cc1 | 34.5
COc1ccc(NC(=O)c2cc(-c3ccc[nH]3)n[nH]2)cc1OC | 120
COc1ccc(-c2ccc(C(=O)NC3CC(c4cc(=O)[nH]c(N)n4)C3)o2)cc1 (stereo not drawn) | 20.9
COC(=O)c1cccc(NC(=O)c2cnc(-c3ccc(F)cc3)nc2-c2ccncc2)c1 | > 1000
O=C(c1ccc2c(c1)ncn2-c1ccc(C(F)(F)F)cc1)N1CCCCC1 | > 1000
COc1ccc(NC(=O)c2[nH]c(C)c(C(C)=O)c2C)cc1[S+](=O)([O-])Nc1ccccc1C#N | 71
CCc1ccc(-n2nc(C)c3c2NC(=O)CSC3c2ccccc2C)cc1 (stereo not drawn) | 707
COc1cccc(C(=O)Nc2nc(-c3nnn(-c4cc(C)ccc4C)c3C)ns2)c1 | 340
O=S(=O)(Nc1cccc2ccncc12)c1ccc(NCc2cccc(Cl)c2O)cc1 | > 1000
CC1=C(C(=O)Nc2nncs2)C(c2[nH]ncc2Cl)N=C(Nc2nc3ccccc3o2)N1 (stereo not drawn) | 37
COc1cccc(CNc2ccc(S(=O)(=O)Nc3cc(C)on3)cc2)c1O | 62.9
CCOC(=O)c1ccc(N2C(=O)c3n[nH]c(-c4ccco4)c3C2c2ccc(C)cc2)cc1 (stereo not drawn) | 6.34
CSc1ccc(/C=C/c2nc3ccccc3n2S(=O)(=O)c2ccc(Br)cc2)cc1 | > 1000
CC(=O)N1CCN(c2ccc(OCc3nn(C)c(C)c3-c3cccc4c(CCCOc5cccc6ccccc56)c(C(=O)O)n(Cc5cccnc5)c34)cc2)CC1 | 253
CC(=O)c1c(C)[nH]c(C(=O)Nc2cccc([S+](=O)([O-])Nc3cccnc3)c2)c1C | 16.5
Fc1cc(Nc2nc(-c3ccncc3)nc3ccccc23)ccc1-c1ccncc1 | 15.4
